The subject of the experiment is L1210 leukemia ip in BDF1 mice, survival T/C. The experiment in a line: NCI In Vivo Anticancer Drug Screen. Data for tumor model L1210 Leukemia (intraperitoneal) in B6D2F1 (BDF1) mice. As to conditions: endpoint: mean survival time, higher = longer survival. A digest of the protocol: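 Ratio derived from survival: compound-dosed mice over vehicle-dosed mice, all bearing a transplantable tumor.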

Setting [1] is: dose: 100.0 mg/kg/injection, schedule: Q01DX009 (ip), vehicle: other.
[2] abbreviates: dose: 200.0 mg/kg/injection, schedule: Q01DX009 (ip), vehicle: other.
Setting [3] is: dose: 400.0 mg/kg/injection, schedule: Q01DX009 (ip), vehicle: other.
Setting [4] is: dose: 50.0 mg/kg/injection, schedule: Q01DX009 (ip), vehicle: Klucel (hydroxypropylcellulose) (HPC).
[5] abbreviates: dose: 100.0 mg/kg/injection, schedule: Q04DX003 (ip), vehicle: saline with Tween-80.
The mark [6] stands for this setting: dose: 200.0 mg/kg/injection, schedule: Q04DX003 (ip), vehicle: saline with Tween-80.
The mark [7] stands for this setting: dose: 400.0 mg/kg/injection, schedule: Q04DX003 (ip), vehicle: saline with Tween-80.
Setting [8] is: dose: 200.0 mg/kg/injection, schedule: Q01DX001 (ip), vehicle: Klucel (hydroxypropylcellulose) (HPC).
[9] abbreviates: dose: 100.0 mg/kg/injection, schedule: Q01DX009 (ip), vehicle: saline with Tween-80.
Setting [10] is: dose: 200.0 mg/kg/injection, schedule: Q01DX009 (ip), vehicle: saline with Tween-80.
Setting [11] is: dose: 400.0 mg/kg/injection, schedule: Q01DX009 (ip), vehicle: saline with Tween-80.

Values joined by “and” are separate entries in the source; they are usually repeats but may differ in a detail not shown here. Equal entries are not always repeated. Toxic doses and inconclusive results are not listed.

Consider `NC(Cc1ccc(N(CCCl)Cc2ccccc2)cc1)C(=O)O` (stereo unspecified), for which the T/C reads like this: (dose: 3.12 mg/kg/injection, schedule: Q01DX009 (ip), vehicle: distilled water + Tween-80) 97 % of control; (dose: 6.25 mg/kg/injection, schedule: Q01DX009 (ip), vehicle: distilled water + Tween-80) 107 % of control; (dose: 12.5 mg/kg/injection, schedule: Q01DX009 (ip), vehicle: distilled water + Tween-80) 96 % of control; (dose: 25.0 mg/kg/injection, schedule: Q01DX009 (ip), vehicle: distilled water + Tween-80) 113 % of control; (dose: 100.0 mg/kg/injection, schedule: Q01DX009 (ip), vehicle: distilled water + Tween-80) 97 % of control.
Turning to `CC1(C)OCC(C2OC(C)(C)OC2C(O)c2cn(-c3ccccc3)nn2)O1` (stereo unspecified), the T/C reads like this: (dose: 100.0 mg/kg/injection, schedule: Q01DX005 (ip), vehicle: saline) 102 % of control; (dose: 200.0 mg/kg/injection, schedule: Q01DX005 (ip), vehicle: saline) 104 % of control.
Consider `OCC(O)C1OCOC2COCOC21` (stereo unspecified), for which the T/C runs as follows: (dose: 222.0 mg/kg/injection, schedule: Q01DX Z (ip), vehicle: saline) 98 % of control; (dose: 333.0 mg/kg/injection, schedule: Q01DX Z (ip), vehicle: saline) 117 % of control; (dose: 500.0 mg/kg/injection, schedule: Q01DX Z (ip), vehicle: saline) 105 % of control.
As to `CCCCOC(=O)c1ccc(NC(=O)Nc2c(C)cccc2C)cc1`, the T/C was 98 % of control under setting [1], 89 % of control under setting [2] and 89 % of control under setting [3].
For the compound `CNC(=O)OCCOC(=O)NC`, the T/C is 98 % of control (dose: 100.0 mg/kg/injection, schedule: Q01DX001 (ip), vehicle: other); 96 % of control under setting [1]; 102 % of control (dose: 100.0 mg/kg/injection, schedule: Q04DX003 (ip), vehicle: other); 109 % of control (dose: 200.0 mg/kg/injection, schedule: Q01DX001 (ip), vehicle: other); 102 % of control under setting [2]; 97 % of control (dose: 200.0 mg/kg/injection, schedule: Q04DX003 (ip), vehicle: other). The T/C reads like this: (dose: 400.0 mg/kg/injection, schedule: Q01DX001 (ip), vehicle: other) 98 % of control; under setting [3], 89 % of control; (dose: 400.0 mg/kg/injection, schedule: Q04DX003 (ip), vehicle: other) 111 % of control.
Turning to `Cc1ccc(S(=O)(=O)N/N=C/C(Br)=C(/Br)C(=O)O)cc1`, the T/C by setting is: (dose: 6.25 mg/kg/injection, schedule: Q01DX009 (ip), vehicle: Klucel (hydroxypropylcellulose) (HPC)) 106 % of control; (dose: 12.5 mg/kg/injection, schedule: Q01DX009 (ip), vehicle: Klucel (hydroxypropylcellulose) (HPC)) 109 % of control; (dose: 25.0 mg/kg/injection, schedule: Q01DX009 (ip), vehicle: Klucel (hydroxypropylcellulose) (HPC)) 111 % of control; under setting [4], 124 % of control.
For `Cc1cc2c(cc1C)C(O)C(N1CCCCC1)CCC2` (stereo unspecified), the T/C runs as follows: under setting [5], 100 % of control; under setting [6], 92 % of control; under setting [7], 90 % of control.
As to `Cc1[nH]c(=O)n(C)c(=O)c1C`, the T/C is 109 % of control (dose: 100.0 mg/kg/injection, schedule: Q01DX001 (ip), vehicle: Klucel (hydroxypropylcellulose) (HPC)); 106 % of control under setting [8]; 104 % of control (dose: 400.0 mg/kg/injection, schedule: Q01DX001 (ip), vehicle: Klucel (hydroxypropylcellulose) (HPC)).
`CC1CN1C(=O)Nc1cccc2c(NC(=O)N3CC3C)cccc12` (stereo unspecified): the T/C reads like this: (dose: 1.58 mg/kg/injection, schedule: Q01DX009 (ip), vehicle: Klucel (hydroxypropylcellulose) (HPC)) 95 % of control; (dose: 2.38 mg/kg/injection, schedule: Q01DX009 (ip), vehicle: Klucel (hydroxypropylcellulose) (HPC)) 101 % of control; (dose: 12.34 mg/kg/injection, schedule: Q01DX009 (ip), vehicle: Klucel (hydroxypropylcellulose) (HPC)) 122 % of control; (dose: 12.5 mg/kg/injection, schedule: Q04DX003 (ip), vehicle: Klucel (hydroxypropylcellulose) (HPC)) 117 % of control; (dose: 35.0 mg/kg/injection, schedule: Q04DX003 (ip), vehicle: Klucel (hydroxypropylcellulose) (HPC)) 105 % of control; (dose: 50.0 mg/kg/injection, schedule: Q01DX001 (ip), vehicle: Klucel (hydroxypropylcellulose) (HPC)) 118 % of control and 121 % of control. Moreover, the T/C reads like this: (dose: 50.0 mg/kg/injection, schedule: Q04DX003 (ip), vehicle: Klucel (hydroxypropylcellulose) (HPC)) 157 % of control; (dose: 55.0 mg/kg/injection, schedule: Q04DX003 (ip), vehicle: Klucel (hydroxypropylcellulose) (HPC)) 207 % of control; (dose: 75.0 mg/kg/injection, schedule: Q01DX001 (ip), vehicle: Klucel (hydroxypropylcellulose) (HPC)) 119 % of control; (dose: 75.0 mg/kg/injection, schedule: Q04DX003 (ip), vehicle: Klucel (hydroxypropylcellulose) (HPC)) 117 % of control; (dose: 85.0 mg/kg/injection, schedule: Q01DX009 (ip), vehicle: Klucel (hydroxypropylcellulose) (HPC)) 89 % of control; (dose: 85.0 mg/kg/injection, schedule: Q04DX003 (ip), vehicle: Klucel (hydroxypropylcellulose) (HPC)) 116 % of control. Moreover, the T/C is 118 % of control (dose: 170.0 mg/kg/injection, schedule: Q04DX003 (ip), vehicle: Klucel (hydroxypropylcellulose) (HPC)) and 88 % of control under setting [8].
`CC(=O)OCC(OC(C)=O)C(OC1OC(COC(C)=O)C(OC(C)=O)C(OC(C)=O)C1OC(C)=O)C(OC(C)=O)C(C=O)OC(C)=O` (stereo unspecified): the T/C was 96 % of control under setting [4]; 89 % of control (dose: 100.0 mg/kg/injection, schedule: Q01DX009 (ip), vehicle: Klucel (hydroxypropylcellulose) (HPC)); 102 % of control under setting [9]; 102 % of control under setting [5]; 89 % of control (dose: 200.0 mg/kg/injection, schedule: Q01DX009 (ip), vehicle: Klucel (hydroxypropylcellulose) (HPC)); 102 % of control under setting [10]. Besides, the T/C is, setting by setting: under setting [6], 105 % of control; under setting [11], 102 % of control; under setting [7], 94 % of control.
`CC(C)(C)OC(=O)NC1CCCCC1`: the T/C is 111 % of control (dose: 100.0 mg/kg/injection, schedule: Q04DX002 (ip), vehicle: saline with Tween-80); 101 % of control (dose: 200.0 mg/kg/injection, schedule: Q04DX002 (ip), vehicle: saline with Tween-80); 104 % of control (dose: 400.0 mg/kg/injection, schedule: Q04DX002 (ip), vehicle: saline with Tween-80).
`Cc1cccc(C)c1-n1c(=S)[nH]n(-c2ccccc2)c1=S`: the T/C by setting is: under setting [9], 91 % of control; under setting [5], 96 % of control; under setting [10], 93 % of control; under setting [6], 96 % of control; under setting [11], 94 % of control; under setting [7], 105 % of control.
In the case of `CN(C)C(=O)NCc1ccccc1`, the T/C (dose: 100.0 mg/kg/injection, schedule: Q04DX003 (ip), vehicle: Klucel (hydroxypropylcellulose) (HPC)) is 90 % of control; the T/C (dose: 200.0 mg/kg/injection, schedule: Q04DX003 (ip), vehicle: Klucel (hydroxypropylcellulose) (HPC)) was 92 % of control; the T/C (dose: 400.0 mg/kg/injection, schedule: Q04DX003 (ip), vehicle: Klucel (hydroxypropylcellulose) (HPC)) is 98 % of control.
As to `O=c1ssc(Nc2ccccc2)c1Cl`, the T/C (dose: 100.0 mg/kg/injection, schedule: Q04DX002 (ip), vehicle: Klucel (hydroxypropylcellulose) (HPC)) was 93 % of control; the T/C (dose: 200.0 mg/kg/injection, schedule: Q04DX002 (ip), vehicle: Klucel (hydroxypropylcellulose) (HPC)) was 100 % of control; the T/C (dose: 400.0 mg/kg/injection, schedule: Q04DX002 (ip), vehicle: Klucel (hydroxypropylcellulose) (HPC)) is 104 % of control.
As to `CC(=O)OCC#CCOC(C)=O`, the T/C was 100 % of control (dose: 50.0 mg/kg/injection, schedule: Q04DX003 (ip), vehicle: saline with Tween-80); 97 % of control under setting [5]; 97 % of control under setting [6].
With `CN(C)CC(O)c1ccc2oc3ccccc3c2c1` (stereo unspecified), the T/C (dose: 100.0 mg/kg/injection, schedule: Q01DX001 (ip), vehicle: saline) is 90 % of control and the T/C (dose: 200.0 mg/kg/injection, schedule: Q01DX001 (ip), vehicle: saline) is 97 % of control.
Regarding `CN(C)CCC(=O)c1cccc([N+](=O)[O-])c1`, for the setting “dose: 75.0 mg/kg/injection, schedule: Q01DX001 (ip), vehicle: other”, the T/C was 102 % of control.

The values above are taken from PubChem BioAssay AID248 (DTP/NCI, 2004).
